Source: patent US6458935B1, “Radiolabeled farnesyl-protein transferase inhibitors” (Merck & Co., Inc., priority 1999, dated 2002)

Tested on: FPTase
Test: PET Imaging in Dogs: blockade of [11C] radiotracer binding
Assay type: in vivo
Settings: dose of 10 mpk infused over 5 minutes; female beagle dogs; radiotracer [11C] compound of Example 6
Method: Female beagle dogs weighing 7.7-14.6 kg (11.0±2.3 kg) are fasted for at least 12 hours allowing water intake ad libitum, and are premedicated with 0.3-0.4 mL Acepromazine injected i.m. on the day of the experiment. A 20 G two inch venous catheter is placed into the right front leg ulnar vein through which anesthesia is introduced by sodium pentobarbital 25-30 mg/kg in 3-4 ml and maintained with additional pentobarbital at an average dose of 3 mg/kg/hr. Another catheter is inserted into the contralateral ulnar vein for radiotracer administration.
Oxygen saturation of circulating blood is measured with a pulse oximeter (Nellcor Inc., Hayward, Calif.) placed on the tongue of the animal. Circulatory volume is maintained by intravenous infusion of isotonic saline. A 22 G cannula is inserted into the anterior tibial or distal femoral artery for continuous pressure monitoring (Spacelabs™, model 90603A). EKG, heart rate, and core temperature are monitored continuously. In particular, EKG is observed for ST segment changes and arrhythmias. […]
For uninhibited distribution of radiotracer, regions of interest (ROIs) are drawn on the reconstructed image includes the kidney cortex and a region of liver which is removed from the gallbladder images. […] Data are expressed as radioactivity per unit time per unit volume (μCi/cc/mCi injected dose). […]

(S)-1-(3-Fluoroethoxy-5-bromophenyl)-4-[1-(4-cyanobenzyl) -5-imidazoylmethyl]-5-[(methanesulfonyl)ethyl]-2-piperazinone [Example 2]
block of PET radiotracer binding (maximum enzyme-specific signal): completely block radiotracer binding
